In patent publication US11059780B2, “Substituted pyrrolidine compound and use thereof” (Takeda Pharmaceutical Company Limited, priority 2017, dated 2021):

What follows are compounds tested against T1, human orexin type 2 receptor (hOX2R) (Homo sapiens, UniProt O43614) (assay: Measurement of orexin type 2 receptor agonist activity (Fluo-4 calcium fluorescence, CHO cells forcibly expressing human OX2 receptor)). Conditions: test compound 3 μM, DMSO = 0%, orexin A (human) 10 nM = 100%.
T1 construct: expressed in transfected cells
T1 sequence (O43614 1-444): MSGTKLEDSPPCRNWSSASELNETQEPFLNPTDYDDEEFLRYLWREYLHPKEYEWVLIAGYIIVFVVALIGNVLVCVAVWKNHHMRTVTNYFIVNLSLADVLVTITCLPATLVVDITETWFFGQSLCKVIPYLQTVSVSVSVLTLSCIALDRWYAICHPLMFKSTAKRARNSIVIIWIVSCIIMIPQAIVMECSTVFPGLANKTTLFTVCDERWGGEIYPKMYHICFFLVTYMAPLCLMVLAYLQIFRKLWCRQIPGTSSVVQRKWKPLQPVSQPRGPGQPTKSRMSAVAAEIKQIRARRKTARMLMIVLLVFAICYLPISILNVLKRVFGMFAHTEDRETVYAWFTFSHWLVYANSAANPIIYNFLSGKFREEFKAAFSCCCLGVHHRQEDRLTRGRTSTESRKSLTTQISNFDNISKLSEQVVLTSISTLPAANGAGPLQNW
Type: cell-based
Procedure, shortened: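 CHO-dhfr cells stably expressing human OX2 receptor, loaded with Fluo-4 AM in HBSS/HEPES/BSA with probenecid, then given test compound at 3 μM. Calcium fluorescence recorded for about 2 min 40 s by FDSS; activity normalized to DMSO (0%) and 10 nM human orexin A (100%).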

OX2R agonist activity (3 μM, %) | Compound
38% | CO[C@@H]1CN(C(=O)Oc2ccccc2C)C[C@H]1Oc1cccc(NS(=O)(=O)N2CC3CC3C2)c1 (stereo partly drawn) [Example 138, 2-methylphenyl(3R,4R)-3-(3-((3-azabicyclo[3.1.0]hex-3-ylsulfonyl)amino)phenoxy)-4-methoxypyrrolidine-1-carboxylate]
105% | CCc1cccc(C)c1C(=O)N1C[C@@H](OC)[C@H](Oc2cccc(CS(=O)(=O)N(C)C3CCOCC3)c2)C1 [Example 146, 1-(3-(((3R,4R)-1-(2-ethyl-6-methylbenzoyl)-4-methoxypyrrolidin-3-yl)oxy)phenyl)-N-methyl-N-(tetrahydro-2H-pyran-4-yl)methanesulfonamide]
76% | CO[C@@H]1CN(C(=O)Oc2c(C)cccc2C)C[C@H]1Oc1cccc(NS(=O)(=O)N2CC3CC3C2)c1 (stereo partly drawn) [Example 148, 2,6-dimethylphenyl(3R,4R)-3-(3-((3-azabicyclo[3.1.0]hex-3-ylsulfonyl)amino)phenoxy)-4-methoxypyrrolidine-1-carboxylate]
110% | CCc1cccc(C)c1C(=O)N1C[C@@H](OC)[C@H](Oc2cccc(CS(=O)(=O)N(C)[C@@H]3C[C@H]4CC[C@@H](C3)O4)c2)C1 [Example 149, 1-(3-(((3R,4R)-1-(2-ethyl-6-methylbenzoyl)-4-methoxypyrrolidin-3-yl)oxy)phenyl)-N-methyl-N-((3-exo)-8-oxabicyclo[3.2.1]oct-3-yl)methanesulfonamide]
83% | COc1ccccc1OC(=O)N1C[C@@H](OC)[C@H](Oc2cccc(NS(=O)(=O)N3CC4CC4C3)c2)C1 (stereo partly drawn) [Example 157, 2-methoxyphenyl(3R,4R)-3-(3-((3-azabicyclo[3.1.0]hex-3-ylsulfonyl)amino)phenoxy)-4-methoxypyrrolidine-1-carboxylate]
83% | CCc1cccc(C)c1C(=O)N1C[C@@H](OC)[C@H](Oc2cccc(CS(=O)(=O)N(CC)C3CCOCC3)c2)C1 [Example 158, N-ethyl-1-(3-(((3R,4R)-1-(2-ethyl-6-methylbenzoyl)-4-methoxypyrrolidin-3-yl)oxy)phenyl)-N-(tetrahydro-2H-pyran-4-yl)methanesulfonamide]
89% | CCc1cccc(C)c1C(=O)N1CC[C@H](Oc2cccc(CS(=O)(=O)N(C)C3CCOCC3)c2)C1 [Example 159, 1-(3-(((3S)-1-(2-ethyl-6-methylbenzoyl)pyrrolidin-3-yl)oxy)phenyl)-N-methyl-N-(tetrahydro-2H-pyran-4-yl)methansulfo]
